Experimental findings from ChEMBL document CHEMBL1201862, “PubChem BioAssay data set” (2004) are described below.

Molecules are shown by their SMILES.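 96-well plates; 48 h exposure; 5 concentrations. Endpoints by linear interpolation between flanking doses. Not reached: highest tested concentration assigned. At the GI50, growth is halved.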 Active and inactive are the calls of the source. No stated cut-off is given here; in the data, active = GI50 up to about 1.1 µM and inactive = higher.

Some test systems named below: DU-145; SNB-75; OVCAR-3; OVCAR-4; HCT-15; OVCAR-8; UACC-62; ACHN; SF-295; CAKI-1; KM12; 786-0; HOP-62; U-251; RXF 393; NCI-H23; EKVX; SF-539; COLO 205; RPMI-8226.
Assay in all cases: growth of human tumour cells (NCI), 48 h

As for `Brc1sc(Br)c2c1[C@H](Br)C[C@@H]2Br`, the GI50 in the test with DU-145 is 24.3 µM (inactive); in the test on SNB-75, 30.1 µM (inactive); in the test with OVCAR-3, 41.9 µM (inactive); in the test with OVCAR-4, 23.5 µM (inactive); in the test with HCT-15, 28.4 µM; in the test on OVCAR-8, 21.6 µM (inactive). Also, the GI50 was 31.3 µM (inactive) with UACC-62; 32.8 µM (inactive) with ACHN; > 10 µM (inactive) with SF-295; 33.8 µM (inactive) with CAKI-1; 44.9 µM (inactive) with KM12; 29.9 µM (inactive) in the test on 786-0. Besides, the GI50 was 64.9 µM (inactive) in the test on HOP-62; 36.6 µM (inactive) in the test with U-251; 0.0689 µM (active) with RXF 393; 24.3 µM (inactive) with NCI-H23; > 100 µM (inactive) in the test on EKVX; 19.1 µM (inactive) in the test with SF-539. In the test on COLO 205, the GI50 is 53.6 µM (inactive).

Consider `CCOC(=O)CC(c1ccccc1)C(C)(C(=O)OCC)C(=O)OCC` (centres undefined), for which the GI50 is > 100 µM (inactive) in the test on DU-145; 87.3 µM (inactive) in the test on SNB-75; > 100 µM (inactive) with OVCAR-4; > 100 µM in the test on HCT-15; > 100 µM (inactive) in the test on OVCAR-8; > 100 µM (inactive) in the test on UACC-62. In addition, the GI50 with ACHN, in the test with SF-295, in the test on CAKI-1, in the test on KM12, in the test with 786-0 and in the test with HOP-62 was > 100 µM (inactive) throughout. Also, the GI50 in the test on U-251 was > 100 µM (inactive); in the test on RXF 393, 3.23 µM (inactive); in the test with NCI-H23, > 100 µM (inactive); in the test on EKVX, > 100 µM (inactive); in the test with SF-539 it was > 100 µM (inactive); in the test with COLO 205, > 100 µM (inactive).

Turning to `CCC(=O)ONC(=O)Cn1ccc([N+](=O)[O-])n1`, the GI50 in the test on DU-145, in the test on SNB-75, in the test on OVCAR-3, in the test on OVCAR-8, in the test with UACC-62 and in the test on ACHN was > 100 µM (inactive) in each case. In addition, the GI50 in the test with SF-295, with CAKI-1, in the test on KM12, with 786-0, in the test on HOP-62 and with RXF 393 was > 100 µM (inactive) throughout. Further, the GI50 with NCI-H23, in the test on RPMI-8226, in the test with EKVX, in the test on SF-539 and with COLO 205 was > 100 µM (inactive) throughout.

Take `NC(=O)CC(/N=C1\C(=O)OC(C(O)CO)\C1=N/C(CC(N)=O)C(=O)O)C(=O)O` (centres undefined): the GI50 in the test with DU-145 was > 100 µM (inactive); in the test with SNB-75 it was > 100 µM (inactive); in the test on OVCAR-4, > 100 µM (inactive); in the test on HCT-15 it was > 100 µM; in the test with OVCAR-8 it was > 100 µM (inactive); with UACC-62, > 100 µM (inactive). The GI50 in the test on ACHN, with SF-295, with CAKI-1, in the test on KM12, with 786-0 and with HOP-62 was > 100 µM (inactive) each time. Moreover, the GI50 in the test with U-251, in the test with RXF 393, in the test on NCI-H23, in the test on RPMI-8226, in the test on EKVX and in the test with SF-539 was > 100 µM (inactive) each time. Besides, the GI50 with COLO 205 was > 100 µM (inactive).

With `O=C1NC(=O)/C(=C/c2ccc(S(=O)(=O)N/N=C/c3ccccc3)cc2)N1`, the GI50 in the test on DU-145 was > 100 µM (inactive); in the test on SNB-75 it was > 100 µM (inactive); with OVCAR-3, > 100 µM (inactive); in the test with OVCAR-4, > 100 µM (inactive); in the test on HCT-15, > 100 µM; in the test on OVCAR-8, > 100 µM (inactive). Also, the GI50 in the test on UACC-62, with ACHN, in the test on SF-295, in the test with CAKI-1, with KM12 and with 786-0 was > 100 µM (inactive) throughout. Also, the GI50 with HOP-62, in the test on U-251, in the test on RXF 393, with NCI-H23, in the test with RPMI-8226 and in the test with EKVX was > 100 µM (inactive) throughout. Besides, in the test on COLO 205, the GI50 was > 100 µM (inactive).

Take `CC1(C)N=C(C2CCCN2C(=O)OCc2ccccc2)OC1=O` (centres undefined): the GI50 is > 100 µM (inactive) with DU-145; > 100 µM (inactive) with SNB-75; > 100 µM (inactive) in the test on OVCAR-3; > 100 µM with HCT-15; > 100 µM (inactive) in the test on OVCAR-8; > 100 µM (inactive) with UACC-62. Further, the GI50 with ACHN, in the test with SF-295, with CAKI-1, in the test on KM12, in the test with 786-0 and with HOP-62 was > 100 µM (inactive) throughout. Moreover, the GI50 with U-251 was > 100 µM (inactive); in the test with RXF 393, 30 µM (inactive); in the test with NCI-H23, > 100 µM (inactive); in the test with RPMI-8226, > 100 µM (inactive); with SF-539 it was > 100 µM (inactive); in the test with COLO 205, > 100 µM (inactive).

As to `[N-]=[N+]=NCc1cccc(Nc2cc(=O)[nH]c(=O)[nH]2)c1`, the GI50 in the test with DU-145 was > 100 µM (inactive); in the test on SNB-75 it was > 100 µM (inactive); in the test with OVCAR-3, > 100 µM (inactive); in the test with HCT-15, > 100 µM; in the test with OVCAR-8 it was > 100 µM (inactive); in the test with UACC-62, > 100 µM (inactive). Further, the GI50 is > 100 µM (inactive) with ACHN; 57.3 µM (inactive) in the test on SF-295; > 100 µM (inactive) in the test with CAKI-1; > 100 µM (inactive) with KM12; > 100 µM (inactive) with 786-0; > 100 µM (inactive) with HOP-62. Moreover, the GI50 with RXF 393, in the test with NCI-H23, with RPMI-8226, with EKVX, with SF-539 and in the test on COLO 205 was > 100 µM (inactive) throughout.

Regarding `Fc1ccccc1C1SCc2nc3cc4ccccc4cc3n21` (centres undefined), the GI50 is 60.8 µM (inactive) in the test on DU-145; 31.7 µM (inactive) with SNB-75; > 100 µM (inactive) in the test with OVCAR-3; 35.1 µM (inactive) in the test on OVCAR-4; 94.8 µM with HCT-15; 36.6 µM (inactive) with OVCAR-8. Moreover, the GI50 in the test on UACC-62 is 57.9 µM (inactive); in the test with ACHN, 28.8 µM (inactive); in the test on SF-295 it was 34.4 µM (inactive); in the test with CAKI-1, 37 µM (inactive); in the test on KM12, > 100 µM (inactive); in the test on 786-0, 20.5 µM (inactive). The GI50 in the test with HOP-62 is > 100 µM (inactive); with U-251 it was 33.7 µM (inactive); in the test on RXF 393 it was 13.3 µM (inactive); in the test with NCI-H23, > 100 µM (inactive); in the test with RPMI-8226, > 100 µM (inactive); in the test on EKVX it was 67.6 µM (inactive). In addition, in the test on COLO 205, the GI50 was 86.7 µM (inactive).

`Cc1cc(NC2=NCCO2)c2c(c1C)CCCC2`: the GI50 is 27.5 µM (inactive) in the test with DU-145; 19.2 µM (inactive) with SNB-75; 15.7 µM (inactive) in the test on OVCAR-4; 16.7 µM with HCT-15; 25.4 µM (inactive) in the test on OVCAR-8; 15.2 µM (inactive) in the test on UACC-62. The GI50 in the test on ACHN is 10.1 µM (inactive); in the test on SF-295, 12.6 µM (inactive); with KM12, 13.2 µM (inactive); in the test with 786-0 it was 17.2 µM (inactive); in the test with HOP-62, 13.3 µM (inactive); with U-251, 18.5 µM (inactive). Further, the GI50 in the test with RXF 393 is 39.3 µM (inactive); with NCI-H23, 18 µM (inactive); in the test on RPMI-8226, 12.6 µM (inactive); with EKVX it was 23.6 µM (inactive); with SF-539 it was 0.0536 µM (active); in the test on COLO 205, 17.1 µM (inactive).

Regarding `COc1cc(/C=C2\CCC(C)C3=C2N=c2s/c(=C/c4ccc(Cl)cc4)c(=O)n2C3c2cc(OC)c(OC)c(OC)c2)cc(OC)c1OC` (centres undefined), the GI50 with DU-145 was > 100 µM (inactive); in the test with SNB-75 it was 0.277 µM (active); in the test with OVCAR-4 it was > 100 µM (inactive); in the test with HCT-15, > 100 µM; in the test with OVCAR-8, > 100 µM (inactive); in the test on UACC-62 it was > 100 µM (inactive). Also, the GI50 in the test on ACHN, with CAKI-1, in the test with KM12, in the test on 786-0, in the test on HOP-62 and in the test with U-251 was > 100 µM (inactive) in each case. For the same compound, the GI50 with RXF 393, in the test on RPMI-8226 and in the test on EKVX was > 100 µM (inactive) in each case.

With `CN(C)c1nc2sc3c(c2c(=O)o1)CCCC3`, the GI50 was 27.8 µM (inactive) in the test with DU-145; 30.1 µM (inactive) in the test on SNB-75; 27.9 µM (inactive) with OVCAR-4; 33.3 µM in the test with HCT-15; 31.8 µM (inactive) in the test on OVCAR-8; 41.8 µM (inactive) in the test with UACC-62. The GI50 was 34.1 µM (inactive) in the test on ACHN; 31.6 µM (inactive) with SF-295; 35.3 µM (inactive) in the test with CAKI-1; 21.6 µM (inactive) in the test on KM12; 45.4 µM (inactive) in the test with 786-0; 25.6 µM (inactive) in the test on HOP-62. Besides, the GI50 in the test on U-251 is 32.7 µM (inactive); in the test with RXF 393 it was 15.5 µM (inactive); in the test on NCI-H23, 46.3 µM (inactive); in the test on RPMI-8226, 35.8 µM (inactive); in the test on EKVX, 25.5 µM (inactive); with SF-539, 43.3 µM (inactive). For the same compound, the GI50 in the test with COLO 205 was 23.6 µM (inactive).
